Laboratory results taken from US9120094B2, “Polymerization of bis[3-(diethoxyphosphoryl)propyl]diallylammonium chloride” (King Fahd University of Petroleum and Minerals, priority 2013, dated 2015).

Tests used:
[1] = Solubility behavior of polymers in solvents; assay type: physicochemical; conditions: water (salt-free)
Experimental: After stirring a mixture of PZ 5 or PZA 7 (2 w/w %) in a solvent at 70° C. […] Table II is presented below.

[2] = Potentiometric titration for protonation (basicity) constants; assay type: physicochemical; conditions: monomer, 0.0175M NaCl at 23° C.
Text: Procedure for the determination of the protonation constants (K1, K2 and K3) of the polyzwitterion/trianion (PZTAN) 10 (Z^±≡) and K1, K2 and K4 of its corresponding monomer ZTAN 15 (Z^±≡) by potentiometric titrations, carried out in an atmosphere of N2 in CO2-free water, is described elsewhere (Al-Muallem, H. A.; Wazeer M. I. M.; Ali, S. A. Polymer, 2002, 43, 4285—incorporated herein by reference in its entirety). A certain mmol of PZA 7 (ZH3^±) or 11 (ZH4^+) in 200 cm^3 of 0.0175 M NaCl was used in each trial (Tables 3 and 4). As the polymer was insoluble in salt-free water, it (≈100 mg) was first dissolved in 1 M NaCl (3.5 mL) and then diluted to 200 mL to make the polymer solution in 0.0175 M NaCl. For the sake of comparison the NaCl strength of water-soluble monomer 11 was also kept at 0.0175 M.
The Log K1, Log K2 and Log K3 of the respective protonation of ^2−O3P—X^+—PO3^2− [in (±≡) PZTAN 10], ^2O3P—X^+—PO3H^− [in (±=) (PZDAN) 9] and ^−HO3P—X^+—PO3H^− [(in (±−) plyzwitterion/anion (PZAN) 8] were calculated at each pH value by the Henderson-Hasselbalch eq 2 (Scheme 2) where the degree of protonation (α) is the ratios [ZH^±=]eq/[Z]o, [ZH2^±−]eq/[Z]o and [ZH3^±]eq/[Z]o, respectively. The [ZH^±=]eq, [ZH2^±−]eq and [ZH3^±]eq represent the respective equilibrium concentrations of the first (9), second (8) and third protonated species (7) whereas [Z]o describes the initial concentration of repeating units.
For the determination of the third step [8 (ZH2^±−)+H^+⇄7 (ZH3^±)] protonation constant (log K3) using the titration of PZA 7 [ZH3^±] with NaOH, α represents the ratio [ZH3^±]eq/[Z]o whereby [Z]o and [ZH3^±]eq are related by [ZH3^±]eq=[Z]o—COH^−—[H^+]+[OH^−], where COH^− represent the added NaOH concentration. The equilibrium [H^+] and [OH^−] values were calculated from the pH value. Continuing the titration, the second step [9 (ZH^±=)+H^+⇄8 (ZH2^±−)] protonation constant (log K2) was determined using volume of the titrant after deducting the equivalent volume from the total volume. […]

Solubility in words [1]	Log Ki^o (log K4) ([2]; fourth step 12 (ZH3±) to 11 (ZH4+), approximate, 2[Z]o used)	Log Ki^o (log K2) ([2]; second step protonation)	Log Ki^o (log K1) ([2]; titration of 11 (ZH4+) with NaOH, first step protonation of 15)	Compound
water-soluble	–	–	–	C=CC[N+](CC=C)(CCCP(=O)(O)O)CCCP(=O)(O)O.[Cl-] [compound 11]
–	2.30	7.43	9.78	C=CC[N+](CC=C)(CCCP(=O)([O-])[O-])CCCP(=O)([O-])[O-].[Na+].[Na+].[Na+] [compound 15]
